Data on ten substances can be found in patent publication US20110111016A1, “NON-DNA BASE-CONTAINING POLYNUCLEOTIDE COMPOSITIONS AND THEIR USE FOR THE MODULATION OF IMMUNE RESPONSES” (priority 2009, published 2011).

The test system of the series is human PBMC. The series is described as follows: Induction of cytokines and chemokines from human PBMC, comparison with CpG polynucleotides (Milliplex MAP kit). The format is cell-based. The conditions noted are these: for Cytokine, IL-6 / Cytokine, IL-10 / Cytokine, MCP-1 / Cytokine, RANTES (CCL5): human PBMC culture supernatant, 48 h, final concentration 10 μg/mL; for Chemokine (MCP-1, RANTES) inducing activity towards human PBMC (in words) / Interleukin (cytokine) inducing activity towards human PBMC (in words): in comparison to LPS and MCC, Table 14. As to the method: LPS and MCC were included as positive controls as described in Example 7. PBMC were isolated from whole blood using standard Ficoll-Paque Plus (GE Healthcare Life Sciences, Baie d'Urfé, QC, Canada) gradient centrifugation, and placed in tissue culture plates at a concentration of 1×10^6 cells/mL (total volume: 1 mL in RPMI 1640 medium containing 10% heat-inactivated FBS (both from Wisent, St-Bruno, QC, Canada) and 50 μg/mL gentamycin sulfate (Sigma-Aldrich Canada, Oakville, ON, Canada). Non-DNA base-containing polynucleotide SEQ ID NOs: 1, 2, 3, 4, 5, 6, 7, 8 and 9 were added to separate wells to give a final concentration of 10 μg/mL, LPS was added to give a final concentration of 10 μg/mL, and the non-CpG 4010, CpG 2336, CpG 2429 and CpG 7909 polynucleotides, SEQ ID NOs: 31, 33, 35 and 34, respectively, were added to give a final concentration of 10 μg/mL.
The cells were then cultivated for 48 h. Cytokines (interleukins IL-6 and IL-10, chemokines MCP-1 and RANTES) in the culture supernatant were measured using a Milliplex™ MAP kit (Millipore Corporation, Billerica, Mass., USA) on a Bio-Plex 200 system (Bio-Rad Laboratories, Hercules, Calif., USA). MCP-1, also known as monocyte chemotactic protein, is an essential chemokine required for effective monocyte and myeloid dendritic cell activation and trafficking across endothelial and epithelial barriers (see for example Henkel et al, 2004 Ann. Neurol. 55:221-235), and RANTES (Regulated on Activation, Normal T cell Expressed and Secreted, now more commonly known as CCL5) is produced by memory phenotype T cells and is chemotactic for and activates T-cells (see for example Swanson et al, 2002 Immunity 17:605-615).

Strand notation (5' to 3'): a small letter for the sugar, then the base; units joined by * are phosphorothioate-linked, units joined directly phosphodiester-linked; [ ] holds rarer units or linkages, { } end groups; capitals alone tell only the bases. d = 2'-deoxy (DNA)

As for “GGGTGGIII (DNA GGGTGGNNN; Three 3' inosines, sugar and linkages not given here, further chemistry not given here) [SEQ ID NO: 7, 5′-OH, 3′-OH non-DNA base-containing polynucleotide]”, the “Cytokine, IL-6” value is 1 pg/mL; the “Cytokine, IL-10” value is reported as 0 pg/mL; the “Cytokine, MCP-1” value is given as 79 pg/mL; the “Cytokine, RANTES (CCL5)” value came out at 71 pg/mL. Also, the “Chemokine (MCP-1, RANTES) inducing activity towards human PBMC (in words)” value (“Chemokine” for short) is recorded as “marginal or no” and the “Interleukin (cytokine) inducing activity towards human PBMC (in words)” value (shortened to “Interleukin”) is reported as “marginal or no”.

For “GIG (DNA GNG; Central inosine, sugar and linkages not given here, further chemistry not given here) [SEQ ID NO: 6, 5′-OH, 3′-OH non-DNA base-containing polynucleotide]”, the “Cytokine, IL-6” value is recorded as 0 pg/mL; the “Cytokine, IL-10” value was found to be 0 pg/mL; the “Cytokine, MCP-1” value is recorded as 48 pg/mL; the “Cytokine, RANTES (CCL5)” value is recorded as 137 pg/mL. The “Chemokine” value is “marginal or no” and the “Interleukin” value is given as “marginal or no”.

For “5′-TGCTGCTTTTTGCTGGCTTTTT-3′ (DNA dT*dG*dC*dT*dG*dC*dT*dT*dT*dT*dT*dG*dC*dT*dG*dG*dC*dT*dT*dT*dT*dT) [SEQ ID NO: 31, reference compound]”, the “Cytokine, IL-6” value was determined as 43 pg/mL; the “Cytokine, IL-10” value is 0 pg/mL; the “Cytokine, MCP-1” value stood at 343 pg/mL; the “Cytokine, RANTES (CCL5)” value came out at 275 pg/mL. The “Chemokine” value is reported as “had chemokine-inducing activity”.

For the substance “GGGTGGUUU (DNA GGGTGGNNN; Three 3' uracils, sugar and linkages not given here, further chemistry not given here) [SEQ ID NO: 9, 5′-OH, 3′-OH non-DNA base-containing polynucleotide]”, the “Cytokine, IL-6” value is recorded as 133 pg/mL; the “Cytokine, IL-10” value is reported as 1 pg/mL; the “Cytokine, MCP-1” value amounted to 914 pg/mL; the “Cytokine, RANTES (CCL5)” value is reported as 117 pg/mL. In addition, the “Chemokine” value is reported as “strong MCP-1 inducing activity”.

“5′-TCGTCGTTTTGTCGTTTTGTCGTT-3′ [SEQ ID NO: 34, reference compound]”: the “Cytokine, IL-6” value came to 41 pg/mL; the “Cytokine, IL-10” value came to 2 pg/mL; the “Cytokine, MCP-1” value worked out at 1270 pg/mL; the “Cytokine, RANTES (CCL5)” value is reported as 187 pg/mL. The “Chemokine” value is on record as “strong MCP-1 inducing activity” and the “Interleukin” value was “did not induce cytokines”.

Take “GGGTGGNebNebNeb (DNA GGGTGGNNN; Three 3' nebularines, sugar and linkages not given here, further chemistry not given here) [SEQ ID NO: 5, 5′-OH, 3′-OH non-DNA base-containing polynucleotide]”: the “Cytokine, IL-6” value is on record as 845 pg/mL; the “Cytokine, IL-10” value was 13 pg/mL; the “Cytokine, MCP-1” value was 3600 pg/mL; the “Cytokine, RANTES (CCL5)” value was found to be 202 pg/mL. Besides, the “Chemokine” value is on record as “strong” and the “Interleukin” value is given as “strong”.

On to “5′-TCGTCGTTTTCGGCGGCCGCCG-3′ (DNA dT*dC*dG*dT*dC*dG*dT*dT*dT*dT*dC*dG*dG*dC*dG*dG*dC*dC*dG*dC*dC*dG) [SEQ ID NO: 35, reference compound]”, for which the “Cytokine, IL-6” value stood at 42 pg/mL; the “Cytokine, IL-10” value was 0 pg/mL; the “Cytokine, MCP-1” value turned out to be 906 pg/mL; the “Cytokine, RANTES (CCL5)” value came to 136 pg/mL. For the same substance, the “Chemokine” value is listed as “strong MCP-1 inducing activity” and the “Interleukin” value is given as “did not induce cytokines”.

In the case of “GUG (DNA GNG; Central uracil in DNA, sugar and linkages not given here, further chemistry not given here) [SEQ ID NO: 8, 5′-OH, 3′-OH non-DNA base-containing polynucleotide]”, the “Cytokine, IL-6” value was 0 pg/mL; the “Cytokine, IL-10” value is listed as 0 pg/mL; the “Cytokine, MCP-1” value stood at 78 pg/mL; the “Cytokine, RANTES (CCL5)” value was determined as 78 pg/mL. In addition, the “Chemokine” value is on record as “marginal or no” and the “Interleukin” value is given as “marginal or no”.

Turning to “GNebG (DNA GNG; Central nebularine, sugar and linkages not given here, further chemistry not given here) [SEQ ID NO: 4, 5′-OH, 3′-OH non-DNA base-containing polynucleotide]”, the “Cytokine, IL-6” value stood at 1960 pg/mL; the “Cytokine, IL-10” value is 28 pg/mL; the “Cytokine, MCP-1” value is reported as 7000 pg/mL; the “Cytokine, RANTES (CCL5)” value was 211 pg/mL. Besides, the “Chemokine” value is reported as “strong” and the “Interleukin” value is “strong”.

“5′-GGGGACGACGTCGTCGGGGGG-3′ (DNA dG*dG*dG*dG*dA*dC*dG*dA*dC*dG*dT*dC*dG*dT*dC*dG*dG*dG*dG*dG*dG) [SEQ ID NO: 33, reference compound]”: the “Cytokine, IL-6” value was 9 pg/mL; the “Cytokine, IL-10” value was 0 pg/mL; the “Cytokine, MCP-1” value came to 573 pg/mL; the “Cytokine, RANTES (CCL5)” value is given as 105 pg/mL. In addition, the “Chemokine” value is on record as “strong MCP-1 inducing activity” and the “Interleukin” value is reported as “did not induce cytokines”.
